Measured values reported in patent US20080255206A1, “Rxr Agonists and Antagonists, Alone or in Combination with Ppar Ligands, in the Treatment of Metabolic and Cardiovascular Diseases” (priority 2005, published 2008).
Read-outs that look alike come from different tables or passages of the source.

What was measured:
MMP-1 mRNA = MMP-1 mRNA in synovial fibroblasts (real time PCR); type: cell-based, human
Procedure: Furthermore, it is determined whether this is accompanied by a modulation in the accumulation of the mRNA encoding catabolic enzyme matrix metalloproteinase-1 (MMP-1), responsible for degradation of human cartilage and consequently joint destruction in man. Adherent synovial fluid cells taken from a patient with RA are used after 5 passages in an in vitro assay for cartilage destruction. The cells incubated in flasks coated with 0.1% (0.1 g/100 ml) human cartilage powder are fixed using Matrigel® (BD Biosciences, Becton, Dickinson & Co., Boston, Mass., USA).
This is conducted in the presence or absence of IL-1β (100 pg/ml).

skin of rats = experiment: Topical administration to the skin of rats (irritation); type: in vivo; settings: concentrations up to 2.5%
[1] = system: myeloperoxidase (MPO) activity; experiment: Acute inflammation of mouse ears, MPO activity; type: in vivo, C57BL/6 mice; settings: 4 d
Procedure: […] mice of the C57BL/6 strain are used. Inflammation is induced on mouse ears with either AtRA, 9-cis RA or TPA by topical application. Inflammation is measured objectively by determination of the activity of myeloperoxidase (MPO) being directly correlated to the infiltration of polymorphonuclear white blood cells and by the determination of mRNA expression of c-jun, a protein implicated in the AP-1 transduction pathway according to known methods, see e.g. P. L. Stanley et al., Skin Pharmacol. 4, 262-271 (1991) (MPO assay), N. Basset-Sequin et al., J. Invest. Dermatol. 94, 418-422 (1990), F. J. Rauscher et al., Cell 52, 471-480 […], P. Sassone-Corn et al., Nature 326, 507-510 (1987), and M. Pfahl, Endocr. Rev. 14, 651-658, 1993, which are incorporated by reference regarding the experimental method.
In the “acute inflammation” test, mice are treated topically (epicutaneously), orally or intraperitoneally, daily for 4 days. In the “semi chronic inflammation” test, mice are treated topically according to the schedules given below. For each experiment, a group of at least 4 mice of both sexes are used in the defined condition, regarding placebo, vehicle control, compound, topical formulation, oral formulation, dosage and concentration. The topical vehicle consists of ethanol/PEG 400/water (3:1:1).
The anti-inflammatory effect of topical RXR antagonist compound 15 is tested by determination of myeloperoxidase activity in % of vehicle treated controls. For induction of inflammation 9-cis RA or TPA are applied topically to the skin, daily for 4 days. The RXR antagonist compound 15 (see Table 1) is administered topically one hour after the application of the inflammation inducing agent. The mice are sacrified 24 hours after the last treatment.

[2] = Pharmacokinetics, single dose administration; type: in vivo; settings: plasma; for concentration at 1 h: po, microsuspension in oil, read-out: Plasma level one hour after oral administration
Procedure: Single dose administration: Compound 15 is administered orally as a microsuspension in oil. When measured one hour after oral administration, plasma levels are 480 ng/ml with 20 mg/kg and 2755 ng/ml with 100 mg/kg. There is a dose proportional increase in plasma levels of compound 15 within this dose range.

db/db mice = experiment: Investigation with db/db mice (blood glucose and lipids); type: in vivo, mouse; settings: for Glucose Diff. D o − D 12 / HDL-cholesterol Diff. D o − D 12 / Total cholesterol Diff. D o − D 12 / Triglycerides Diff. D o − D 12: change day 0 to day 12; for Glucose D o / HDL-cholesterol D o / Total cholesterol D o / Triglycerides D o: day 0; for Glucose D 12 / HDL-cholesterol D 12 / Total cholesterol D 12 / Triglycerides D 12: day 12; for Glucose D-4 / HDL-cholesterol D-4 / Total cholesterol D-4 / Triglycerides D-4: day −4
Procedure: The following compounds are investigated and compared to placebo (vehicle control).
The mentioned 3 compounds are tested in db/db mice during a time when diabetes is in a rapid developing stage. […] Each dosage group and the vehicle group comprise 7 mice. The suspensions used are prepared with peroxide free arachis oil as vehicle. Blood samples are collected by retro-orbital bleeding at days −4, 0 and 12. The blood levels of glucose, triglycerides, total cholesterol, and HDL-cholesterol are determined.
For evaluation of efficacy, the difference between the values of glucose, triglycerides, total cholesterol and HDL-cholesterol changing from day 0 to day 12 is determined and expressed in %. […] Overall evaluation consists in determining the efficacy of the compounds by calculating the whole extent of the effect expressed in %. […] This value is considered as a valuable indicator for the efficacy of the investigated compounds administered in a tolerated dose.

[3] = 30 mg/kg/day group versus vehicle group

CCCCOc1c(\C(C)=C/C=C/C(C)=C/C(=O)O)cc(C(C)(C)C)cc1C(C)(C)C [Compound 15, (2E,4E,6Z)-7-[2-butoxy-3,5-bis(1,1-dimethylethyl)phenyl]-3-methyl-2,4,6-octatrienoic acid]
MMP-1 mRNA, fold increase of baseline value (MMP-1 mRNA; 10^−7 M, after 24 hours): 0.68 relative units | MMP-1 mRNA, fold increase of baseline value (MMP-1 mRNA; 10^−8 M, 0 hours): 1 relative units | MMP-1 mRNA, fold increase of baseline value (MMP-1 mRNA; 10^−8 M, 2 hours): 1.13 relative units | MMP-1 mRNA, fold increase of baseline value (MMP-1 mRNA; 10^−8 M, 6 hours): 0.81 relative units | MMP-1 mRNA, fold increase of baseline value (MMP-1 mRNA; 10^−8 M, 12 hours): 1.12 relative units | MMP-1 mRNA, fold increase of baseline value (MMP-1 mRNA; 10^−8 M, 24 hours): 0.87 relative units | MMP-1 mRNA, fold increase of baseline value (MMP-1 mRNA; 10^−8 M, 48 hours): 0.83 relative units | MMP-1 mRNA, fold increase of baseline value (MMP-1 mRNA; 10^−8 M, after 24 hours): 1.12 relative units | MMP-1 mRNA, fold increase of baseline value (MMP-1 mRNA; 10^−9 M, after 24 hours): 1.05 relative units | Irritation or inflammation of the skin (skin of rats): does not lead to irritation or inflammation of the skin | MPO activity (% vehicle treated mice) ([1]; 9-cis RA 0.05% + test compound 0.05% topical): 236 ± 92 % vehicle treated mice | MPO activity (% vehicle treated mice) ([1]; TPA 0.005% + test compound 0.05% topical): 163 ± 25 % vehicle treated mice | MPO activity (% vehicle treated mice) ([1]; TPA 0.005% + test compound 2.5% topical): 142 ± 18 % vehicle treated mice | concentration at 1 h ([2]; single dose 20 mg/kg): 480 ng/mL | concentration at 1 h ([2]; single dose 100 mg/kg): 2760 ng/mL | bioavailability ([2]; at the mentioned low doses, intravenous versus oral PK data): 40% | Glucose Diff. D o − D 12 (db/db mice; 0.3 mg/kg/day i.p.): +20.8% | HDL-cholesterol Diff. D o − D 12 (db/db mice; 0.3 mg/kg/day i.p.): −5.0% | Total cholesterol Diff. D o − D 12 (db/db mice; 0.3 mg/kg/day i.p.): −5.7% | Triglycerides Diff. D o − D 12 (db/db mice; 0.3 mg/kg/day i.p.): −0.6% | Glucose D o (db/db mice; 0.3 mg/kg/day i.p.): 226 mg/dL | HDL-cholesterol D o (db/db mice; 0.3 mg/kg/day i.p.): 3.00 mmol/L | Total cholesterol D o (db/db mice; 0.3 mg/kg/day i.p.): 4.05 mmol/L | Triglycerides D o (db/db mice; 0.3 mg/kg/day i.p.): 1.78 mmol/L | Glucose D 12 (db/db mice; 0.3 mg/kg/day i.p.): 273 mg/dL | HDL-cholesterol D 12 (db/db mice; 0.3 mg/kg/day i.p.): 2.85 mmol/L | Total cholesterol D 12 (db/db mice; 0.3 mg/kg/day i.p.): 3.82 mmol/L | Triglycerides D 12 (db/db mice; 0.3 mg/kg/day i.p.): 1.77 mmol/L | Glucose D-4 (db/db mice; 0.3 mg/kg/day i.p.): 153 mg/dL | HDL-cholesterol D-4 (db/db mice; 0.3 mg/kg/day i.p.): 2.43 mmol/L | Total cholesterol D-4 (db/db mice; 0.3 mg/kg/day i.p.): 4.52 mmol/L | Triglycerides D-4 (db/db mice; 0.3 mg/kg/day i.p.): 2.28 mmol/L | Glucose levels (in words) (db/db mice; 3 mg/kg/day): markedly lowers glucose levels | HDL-cholesterol levels (in words) (db/db mice; 3 mg/kg/day): markedly raised | Triglyceride levels (in words) (db/db mice; 3 mg/kg/day): markedly decreasing | Glucose Diff. D o − D 12 (db/db mice; 3.0 mg/kg/day i.p.): +4.1% | HDL-cholesterol Diff. D o − D 12 (db/db mice; 3.0 mg/kg/day i.p.): +18.4% | Total cholesterol Diff. D o − D 12 (db/db mice; 3.0 mg/kg/day i.p.): −11.1% | Triglycerides Diff. D o − D 12 (db/db mice; 3.0 mg/kg/day i.p.): −44.9% | Glucose D o (db/db mice; 3.0 mg/kg/day i.p.): 270 mg/dL | HDL-cholesterol D o (db/db mice; 3.0 mg/kg/day i.p.): 2.88 mmol/L | Total cholesterol D o (db/db mice; 3.0 mg/kg/day i.p.): 3.95 mmol/L | Triglycerides D o (db/db mice; 3.0 mg/kg/day i.p.): 2.16 mmol/L | Glucose D 12 (db/db mice; 3.0 mg/kg/day i.p.): 281 mg/dL | HDL-cholesterol D 12 (db/db mice; 3.0 mg/kg/day i.p.): 3.41 mmol/L | Total cholesterol D 12 (db/db mice; 3.0 mg/kg/day i.p.): 4.39 mmol/L | Triglycerides D 12 (db/db mice; 3.0 mg/kg/day i.p.): 1.19 mmol/L | Glucose D-4 (db/db mice; 3.0 mg/kg/day i.p.): 192 mg/dL | HDL-cholesterol D-4 (db/db mice; 3.0 mg/kg/day i.p.): 2.47 mmol/L | Total cholesterol D-4 (db/db mice; 3.0 mg/kg/day i.p.): 4.62 mmol/L | Triglycerides D-4 (db/db mice; 3.0 mg/kg/day i.p.): 2.15 mmol/L | Glucose levels (in words) (db/db mice; 30 mg/kg/day): decrease markedly | HDL-cholesterol levels (in words) (db/db mice; 30 mg/kg/day): markedly increased | Total cholesterol levels (in words) (db/db mice; 30 mg/kg/day): slightly higher | Triglyceride levels (in words) (db/db mice; 30 mg/kg/day): very strongly | Overall extent of the effect on blood levels of Glucose (db/db mice; [3]): −58.0% | Overall extent of the effect on blood levels of HDL-cholesterol (db/db mice; [3]): +14.2% | Overall extent of the effect on blood levels of Total cholesterol (db/db mice; [3]): +14.9% | Overall extent of the effect on blood levels of Triglycerides (db/db mice; [3]): −73.0% | Glucose Diff. D o − D 12 (db/db mice; 30 mg/kg/day i.p.): −8.8% | HDL-cholesterol Diff. D o − D 12 (db/db mice; 30 mg/kg/day i.p.): +10.4% | Total cholesterol Diff. D o − D 12 (db/db mice; 30 mg/kg/day i.p.): +6.1% | Triglycerides Diff. D o − D 12 (db/db mice; 30 mg/kg/day i.p.): −50.9% | Glucose D o (db/db mice; 30 mg/kg/day i.p.): 294 mg/dL | HDL-cholesterol D o (db/db mice; 30 mg/kg/day i.p.): 3.07 mmol/L | Total cholesterol D o (db/db mice; 30 mg/kg/day i.p.): 4.27 mmol/L | Triglycerides D o (db/db mice; 30 mg/kg/day i.p.): 2.18 mmol/L | Glucose D 12 (db/db mice; 30 mg/kg/day i.p.): 268 mg/dL | HDL-cholesterol D 12 (db/db mice; 30 mg/kg/day i.p.): 3.39 mmol/L | Total cholesterol D 12 (db/db mice; 30 mg/kg/day i.p.): 4.53 mmol/L | Triglycerides D 12 (db/db mice; 30 mg/kg/day i.p.): 1.07 mmol/L | Glucose D-4 (db/db mice; 30 mg/kg/day i.p.): 184 mg/dL | HDL-cholesterol D-4 (db/db mice; 30 mg/kg/day i.p.): 2.45 mmol/L | Total cholesterol D-4 (db/db mice; 30 mg/kg/day i.p.): 3.98 mmol/L | Triglycerides D-4 (db/db mice; 30 mg/kg/day i.p.): 1.85 mmol/L
